# Assay results reported in ChEMBL document CHEMBL4118132, “Novel 5-methyl-2-phenylphenanthridium derivatives as FtsZ-targeting antibacterial agents from structural simplification of natural product sanguinarine” (2018).
# Key:
# Assay type in all cases: functional
# Staphylococcus aureus [1] = assay: Antibacterial activity against penicillin-susceptible Staphylococcus aureus ATCC 25923 after 24 hrs by broth microdilution method; conditions: ATCC 25923, 24 h
# Staphylococcus aureus [2] = assay: Antibacterial activity against methicillin-resistant Staphylococcus aureus ATCC 43300 after 24 hrs by broth microdilution method; conditions: ATCC 43300, 24 h
# Staphylococcus aureus [3] = assay: Antibacterial activity against penicillin-resistant Staphylococcus aureus clinical isolate after 24 hrs by broth microdilution method
# [4] = tested on: Staphylococcus epidermidis; assay: Antibacterial activity against penicillin-resistant Staphylococcus epidermidis clinical isolate after 24 hrs by broth microdilution method
# Streptococcus pyogenes [5] = assay: Antibacterial activity against penicillin-susceptible Streptococcus pyogenes after 24 hrs by broth microdilution method
# Streptococcus pyogenes [6] = assay: Antibacterial activity against penicillin-resistant Streptococcus pyogenes after 24 hrs by broth microdilution method
# Bacillus subtilis = assay: Antibacterial activity against penicillin-susceptible Bacillus subtilis ATCC 9372 after 24 hrs by broth microdilution method; conditions: ATCC 9372, 24 h
# Bacillus pumilus = assay: Antibacterial activity against penicillin-susceptible Bacillus pumilus ATCC 63202 after 24 hrs by broth microdilution method; conditions: ATCC 63202, 24 h
# Escherichia coli = assay: Antibacterial activity against penicillin-susceptible Escherichia coli ATCC 25922 after 24 hrs by broth microdilution method; conditions: ATCC 25922, 24 h
# Pseudomonas aeruginosa = assay: Antibacterial activity against penicillin-susceptible Pseudomonas aeruginosa ATCC 27853 after 24 hrs by broth microdilution method; conditions: ATCC 27853, 24 h
# Staphylococcus aureus [7] = assay: Bactericidal activity against penicillin-susceptible Staphylococcus aureus ATCC 25923 after 24 hrs by flat colony counting method; conditions: ATCC 25923, 24 h
# Staphylococcus aureus [8] = assay: Potency index, ratio of ciprofloxacin MIC to test compound MIC for penicillin-resistant Staphylococcus aureus clinical isolate
# Staphylococcus aureus [9] = assay: Potency index, ratio of ciprofloxacin MIC to test compound MIC for penicillin-susceptible Staphylococcus aureus ATCC 25923
# Staphylococcus aureus [10] = assay: Potency index, ratio of oxacillin sodium MIC to test compound MIC for penicillin-susceptible Staphylococcus aureus ATCC 25923
# Staphylococcus aureus [11] = assay: Potency index, ratio of ciprofloxacin MIC to test compound MIC for methicillin-resistant Staphylococcus aureus ATCC 43300
# Staphylococcus aureus [12] = assay: Potency index, ratio of oxacillin sodium MIC to test compound MIC for methicillin-resistant Staphylococcus aureus ATCC 43300
# Staphylococcus aureus [13] = assay: Potency index, ratio of oxacillin sodium MIC to test compound MIC for penicillin-resistant Staphylococcus aureus clinical isolate
SMILES,MIC (Staphylococcus aureus [1]) [µg/mL],MIC (Staphylococcus aureus [2]) [µg/mL],MIC (Staphylococcus aureus [3]) [µg/mL],MIC [4] [µg/mL],MIC (Streptococcus pyogenes [5]) [µg/mL],MIC (Streptococcus pyogenes [6]) [µg/mL],MIC (Bacillus subtilis) [µg/mL],MIC (Bacillus pumilus) [µg/mL],MIC (Escherichia coli) [µg/mL],MIC (Pseudomonas aeruginosa) [µg/mL],MBC (Staphylococcus aureus [7]) [µg/mL],Ratio (Staphylococcus aureus [8]),Ratio (Staphylococcus aureus [9]),Ratio (Staphylococcus aureus [10]),Ratio (Staphylococcus aureus [11]),Ratio (Staphylococcus aureus [12]),Ratio (Staphylococcus aureus [13])
C[n+]1cc2ccccc2c2cc(-c3ccccc3C(F)(F)F)ccc21.[Cl-],16,32,32,32,64,32,32,32,> 64,> 64,> 64,,,,,,
COc1cc(-c2ccc(C)cc2)cc2c3ccccc3c[n+](C)c12.[Cl-],4,4,16,16,2,8,0.5,2,> 64,> 64,64,,,,,,
Cc1onc(-c2ccccc2)c1C(=O)N[C@@H]1C(=O)N2[C@@H]1SC(C)(C)[C@@H]2C(=O)[O-].[Na+],4,> 64,> 64,> 64,1,> 64,4,32,> 64,> 64,,,,,,,
Cc1ccc(-c2cc(C)c3c(c2)c2ccccc2c[n+]3C)cc1.[Cl-],0.5,2,1,2,4,4,0.5,2,> 64,> 64,32,4 - 64,8 - 133,4 - 67,4 - 164,16 - 256,16 - 256
COc1ccc(-c2cc(C)c3c(c2)c2ccccc2c[n+]3C)cc1.[Cl-],0.5,4,4,2,8,8,2,4,> 64,> 64,> 64,4 - 64,8 - 133,4 - 67,4 - 164,16 - 256,16 - 256
COc1cc(-c2ccccc2C(F)(F)F)cc2c3ccccc3c[n+](C)c12.[Cl-],8,16,16,16,16,16,16,16,> 64,> 64,> 64,,,,,,
COc1cc(-c2cccc(C(F)(F)F)c2)cc2c3ccccc3c[n+](C)c12.[Cl-],2,8,8,4,4,8,4,4,> 64,> 64,32,,,,,,
COc1cc(-c2ccccc2)cc2c3ccccc3c[n+](C)c12.[Cl-],16,8,64,4,2,8,1,4,> 64,> 64,> 64,,,,,,
COc1ccc(-c2cc(OC)c3c(c2)c2ccccc2c[n+]3C)cc1.[Cl-],16,32,64,16,4,8,2,8,> 64,> 64,> 64,,,,,,
C[n+]1cc2ccccc2c2cc(-c3ccc(OC(F)(F)F)cc3)ccc21.[Cl-],4,64,64,16,4,32,2,8,> 64,> 64,64,,,,,,
COc1cc(-c2ccc(-c3ccccc3)cc2)cc2c3ccccc3c[n+](C)c12.[Cl-],1,4,4,8,1,16,2,2,> 64,> 64,16,,,,,,
C[n+]1cc2ccccc2c2cc(-c3ccc(C(F)(F)F)cc3)ccc21.[Cl-],8,16,16,> 64,2,16,4,8,> 64,> 64,> 64,,,,,,
C[n+]1cc2ccccc2c2cc(-c3cccc(C(F)(F)F)c3)ccc21.[Cl-],8,16,16,8,16,8,16,16,> 64,> 64,> 64,,,,,,
Cc1cc(-c2cccc(C(F)(F)F)c2)cc2c3ccccc3c[n+](C)c12.[Cl-],0.25,1,0.5,0.25,1,2,0.25,0.5,> 64,> 64,16,4 - 64,8 - 133,4 - 67,4 - 164,16 - 256,16 - 256
COc1cc(-c2ccc(OC(F)(F)F)cc2)cc2c3ccccc3c[n+](C)c12.[Cl-],1,4,8,16,2,16,4,2,> 64,> 64,32,,,,,,
COc1ccc(-c2ccc3c(c2)c2ccccc2c[n+]3C)cc1.[Cl-],4,64,64,64,4,16,4,16,> 64,> 64,> 64,,,,,,
Cc1cc(-c2ccccc2)cc2c3ccccc3c[n+](C)c12.[Cl-],1,2,2,4,2,2,1,4,> 64,> 64,32,4 - 64,8 - 133,4 - 67,4 - 164,16 - 256,16 - 256
C[n+]1cc2ccccc2c2cc(-c3ccccc3)ccc21.[Cl-],32,16,64,16,4,16,4,16,> 64,> 64,> 64,,,,,,
COc1cc(-c2ccc(C(F)(F)F)cc2)cc2c3ccccc3c[n+](C)c12.[Cl-],2,4,8,8,0.5,8,1,2,> 64,> 64,32,,,,,,
C[n+]1cc2ccccc2c2cc(-c3ccc(-c4ccccc4)cc3)ccc21.[Cl-],8,64,8,> 64,2,64,8,16,> 64,> 64,> 64,,,,,,
Cc1ccc(-c2ccc3c(c2)c2ccccc2c[n+]3C)cc1.[Cl-],8,16,16,32,4,16,2,8,> 64,> 64,> 64,,,,,,
Cc1cc(-c2ccccc2C(F)(F)F)cc2c3ccccc3c[n+](C)c12.[Cl-],0.5,1,1,0.5,2,2,0.5,2,> 64,> 64,32,4 - 64,8 - 133,4 - 67,4 - 164,16 - 256,16 - 256
COc1cc(/C=C/C(=O)CC(=O)/C=C/c2ccc(O)c(OC)c2)ccc1O [CURCUMIN],32,64,> 64,> 64,> 64,,32,32,> 64,> 64,,,,,,,
